Experiments:
[1] = Thermodynamic saturation solubility in test solvent, HPLC of clear supernatant after stirring 24 hours (method b); type: physicochemical
Description: Quantitative determination of the solubility is possible for example in the following way: • a) A concentration series is prepared by bringing various amounts of biologically active substance into contact with a constant amount of test solvent in parallel tests. After an equilibration time over a defined period at a given temperature, preferably with blending, e.g. stirring for 24 hours or ultrasound treatment for 30 min, the maximum concentration at which clear solutions are obtained is found. The solubility of the biologically active substance is between the concentration at which a clear solution is obtained but at the next concentration no clear solution is obtained. • b) An amount of the test solvent which is insufficient for completely dissolving is added to an amount of the biologically active substance, or further amounts of biologically active substance are added to the solution until the added amount no longer completely dissolves. After an equilibration time over a defined period at a given temperature, preferably with blending, e.g. stirring for 24 hours or ultrasound treatment for 30 min, a sample of the clear supernatant is taken. The mixture can for this purpose be previously centrifuged, e.g. using an ultracentrifuge at 8000 to 12 000 rpm. The concentration of the biologically active substance is determined in the sample of the clear supernatant, e.g. by high pressure liquid chromatography (HPLC). The value which is found corresponds to the solubility of the biologically active substance.
(§1) The copolymer was simulated by a mixture of 1,3-bis-(pyrrolidon-1-yl)butane and 1,4-diacetoxybutane in the ratio of 6:4 by weight.
In an alternative determination method, 150 mg of lopinavir were mixed with 350 mg of the test solvent and stirred at room temperature for 24 hours. The sample was then centrifuged at 12 000 rpm for one minute. The clear supernatant was investigated by HPLC.
Example 1b) was repeated but with the test solvent containing 5% by weight Cremophor RH 40.
Example 1b) was repeated with the abovementioned active ingredient premix. 21.3% by weight lopinavir was found in the clear supernatant by HPLC.
Example 3a) was repeated, using the concentrations indicated in the table below, and with the test solvent containing 10% by weight Cremophor RH 40. […] The HPLC method led to a result of 21.7% for lopinavir.

[2] = Maximum solubility in test solvent after ultrasound treatment, HPLC of supernatant (method c); type: physicochemical
Description: However, the active ingredient loading in solid solutions can be increased greatly by energy input. The maximum active ingredient loading achievable in a given matrix of a copolymer can be predicted with the test system of the invention by determining the solubility of the biologically active substance in accordance with one of the aforementioned methods a) or b), the equilibration being carried out by heating to a temperature of, for example, 140° C., in particular from 110 to 140° C., or by sonication.
as §1
The maximum solubility was determined by mixing 60 mg of lopinavir with 140 mg of the test solvent and treating with ultrasound at room temperature for 30 min. The solvent was then centrifuged at 10 000 rpm for 10 min. A sample of the clear supernatant was investigated by HPLC. […] The remaining amount of the sample was stored at room temperature for 4 weeks. Then a further sample of the supernatant was taken and investigated by HPLC. A concentration of 28.87% by weight was found.

Cc1cccc(C)c1OCC(=O)N[C@@H](Cc1ccccc1)[C@@H](O)C[C@H](Cc1ccccc1)NC(=O)[C@H](C(C)C)N1CCCNC1=O [Lopinavir]
solubility ([1]; 150 mg lopinavir + 350 mg test solvent 6:4, stirred at room temperature 24 hours, HPLC of clear supernatant): 24.9 % by weight
influence of Cremophor RH 40 on thermodynamic saturation solubility ([1]; 5% by weight Cremophor RH 40 in test solvent versus none): reduces the thermodynamic saturation solubility
solubility ([1]; HPLC of supernatant, test solvent containing 5% by weight Cremophor RH 40): 22.8%
lopinavir found in the clear supernatant ([1]; HPLC, lopinavir/ritonavir premix 4:1 by weight, test solvent 6:4): 21.3 % by weight
thermodynamic saturation solubility, HPLC method ([1]; lopinavir/ritonavir premix 4:1, test solvent containing 10% by weight Cremophor RH 40): 21.7%
influence of ritonavir on thermodynamic saturation solubility ([1]; presence of ritonavir (premix 4:1) versus lopinavir alone): reduces the thermodynamic saturation solubility
maximum solubility ([2]; 60 mg lopinavir + 140 mg test solvent, ultrasound at room temperature 30 min, HPLC of supernatant): 39.72 % by weight
concentration in supernatant after storage ([2]; after ultrasound treatment, sample stored at room temperature for 4 weeks, HPLC): 28.87 % by weight
